Reference: ChEMBL document CHEMBL1127408, “Anti-AIDS agents. 15. Synthesis and anti-HIV activity of dihydroseselins and related analogs” (J Med Chem, 1994)

Key:
[1] = test system: Human immunodeficiency virus 1; assay: Anti-HIV activity in acutely infected H9 lymphocytes.; type: functional, organism-based
[2] = (§1) Tested for in vitro therapeutic index as the ratio of IC50 to EC50 in acutely infected H9 Lymphocytes; type: organism-based, Human immunodeficiency virus 1; conditions: human immunodeficiency virus 1, H9 lymphocytes acutely infected with HIV-1; read-out: TI
[3] = Tested for in vitro therapeutic index as the ratio of IC50 to EC50 in PBMCs; conditions: human, read-out: TI
[4] = test system: Human immunodeficiency virus 1; assay: as §1; type: organism-based; conditions: Human immunodeficiency virus 1
U-937 = assay: Compound was tested for anti-HIV activity in acutely infected U937; type: functional, cell-based; conditions: Homo sapiens
[5] = Tested for in vitro therapeutic index as the ratio of IC50 to EC50 in acutely infected U937; type: cell-based, U-937; conditions: human, acutely infected U937 cells; read-out: TI

Structure (SMILES) | EC50 ([1]; Human immunodeficiency virus 1) [µM] | selectivity ratio [2] | further results
CC1(C)Oc2ccc3ccc(=O)oc3c2C(OC(=O)c2cccc(Cl)c2)C1O (stereo not given) | 4.2 | 2.4 | 
CC(C)(C)c1ccc(C(=O)OC2c3c(ccc4ccc(=O)oc34)OC(C)(C)C2OC(=O)c2ccc(C(C)(C)C)cc2)cc1 (stereo not given) | < 1.4 | > 2.2 | 
CCC(C)C(=O)OC1c2c(ccc3ccc(=O)oc23)OC(C)(C)C1OC(=O)C(C)CC (stereo not given) | 7 | 14.4 | 
CC1(C)Oc2ccc3ccc(=O)oc3c2C(N=[N+]=[N-])C1O (stereo not given) | 116 | 2.9 | 
CC(C)=CC(=O)OC1c2c(ccc3ccc(=O)oc23)OC(C)(C)C1OC(=O)C=C(C)C (stereo not given) | 4.7 | 3.5 | 
CC1(C)Oc2ccc3ccc(=O)oc3c2C(OC(=O)c2cccc(Cl)c2)C1OCc1ccccc1 (stereo not given) | 3.1 | 5 | 
COC1C(OC(=O)c2cccc(Cl)c2)c2c(ccc3ccc(=O)oc23)OC1(C)C (stereo not given) | 241 | 0.34 | 
CC(=O)OC1c2c(ccc3ccc(=O)oc23)OC(C)(C)C1OCc1ccccc1 (stereo not given) | 38 | 2.3 | 
CC(C)CC(=O)OC1C(OC(=O)c2cccc(Cl)c2)c2c(ccc3ccc(=O)oc23)OC1(C)C (stereo not given) | 9.3 | 1.4 | 
CC(=O)OC1C(N=[N+]=[N-])c2c(ccc3ccc(=O)oc23)OC1(C)C (stereo not given) | 116 | 1 | 
CC(C)[C@H]1CC[C@H](C)C[C@@H]1OC(=O)OC1c2c(ccc3ccc(=O)oc23)OC(C)(C)C1OC(=O)O[C@@H]1C[C@H](C)CC[C@H]1C(C)C (stereo not given in full) | 11.4 | 2.9 | 
CC(C)(C)CC(=O)O[C@@H]1c2c(ccc3ccc(=O)oc23)OC(C)(C)[C@@H]1OC(=O)CC(C)(C)C | 21.8 | 2 | 
CC1(C)Oc2ccc3ccc(=O)oc3c2C(O)C1OCc1ccccc1 (stereo not given) | 43 | 2.7 | 
CC1(C)Oc2ccc3ccc(=O)oc3c2[C@@H](OC(=O)C23CCC(C)(C(=O)O2)C3(C)C)[C@H]1OC(=O)C12CCC(C)(C(=O)O1)C2(C)C (mixture of isomers; 16) |  |  | selectivity ratio [3]: 472; EC50 [1]: 4 µM; TI [4]: 136719; EC50 (U-937): 0.0021 µM; selectivity ratio [5]: 11700
CC1(C)Oc2ccc3ccc(=O)oc3c2[C@@H](OC(=O)C23CCC(C)(C(=O)O2)C3(C)C)[C@H]1OC(=O)C12CCC(C)(C(=O)O1)C2(C)C (mixture of isomers; 17) |  |  | EC50 [1]: 145 µM; TI [4]: 1.1
CC1(C)Oc2ccc3ccc(=O)oc3c2C(OC(=O)c2cccc(Cl)c2)C1OC1CCCCO1 (single isomer, unassigned) | 8.3 | 10 | 
CC(=O)OC1c2c(ccc3ccc(=O)oc23)OC(C)(C)C1OC(C)=O (stereo in doubt; 8) | 69.4 |  | TI [4]: 0.4
CC(C)CC(=O)OC1c2c(ccc3ccc(=O)oc23)OC(C)(C)C1OC(=O)CC(C)C (stereo in doubt; 9) |  | 2 | EC50 [1]: 7 µM
CC(=O)OC1c2c(ccc3ccc(=O)oc23)OC(C)(C)C1OC(C)=O (stereo in doubt; 37) |  |  | EC50 [1]: 43 µM; TI [4]: 3
CC1(C)Oc2ccc3ccc(=O)oc3c2C(OC(=O)C23CCC(C)(C(=O)O2)C3(C)C)C1OC(=O)C12CCC(C)(C(=O)O1)C2(C)C (stereo in doubt; 38) | 24.1 | 3 | 
CC1(C)Oc2ccc3ccc(=O)oc3c2C(OC(=O)C23CCC(C)(C(=O)O2)C3(C)C)C1OC(=O)C12CCC(C)(C(=O)O1)C2(C)C (stereo in doubt; 39) |  |  | EC50 [1]: 32 µM; TI [4]: > 5
CC(C)CC(=O)OC1c2c(ccc3ccc(=O)oc23)OC(C)(C)C1OC(=O)CC(C)C (stereo in doubt; 42) |  |  | EC50 [1]: 20.9 µM; TI [4]: 3
C/C=C(\C)C(=O)O[C@@H]1c2c(ccc3ccc(=O)oc23)OC(C)(C)[C@@H]1OC(C)=O [PTERYXIN] | 4.6 | 4.5 | 
CC1(C)C=Cc2c(ccc3ccc(=O)oc23)O1 [SESALIN] | 3.5 | 5 | 
CC(=O)O[C@@H]1[C@H](OC(=O)CC(C)C)c2c(ccc3ccc(=O)oc23)OC1(C)C [SUKSDORFIN] | 2.6 | 30.6 | 
Cc1cn([C@H]2C[C@H](N=[N+]=[N-])[C@@H](CO)O2)c(=O)[nH]c1=O [ZIDOVUDINE] | 0.15 | 12500 | 
